In patent US20230330045A1 (priority 2020, published 2023):
Read-outs that look alike come from different tables or passages of the source.

Biological target: eel acetylcholinesterase (AChE) (Electrophorus electricus, UniProt O42275)
Assay: Eel AChE fluorescence assay (AMPLEX Red kit)
Format: biochemical
Details: for inhibition of AChE activity (in words): eel AChE, 20 μM
Method: Enzymatic reactions consisted of 50 μM acetylcholine, 200 μM AIVIPLEX™ Red reagent, 1 U/mL horseradish peroxidase, 0.1 U/mL choline oxidase and 0.096 U/mL acetylcholinesterase, with 30 1% DMSO. […] Control reactions lacking acetylcholinesterase but containing 5 μM H2O2 in presence of compounds were analyzed at the same wavelength to exclude compounds that display assay interference. Dose-response curves were performed in duplicate.

[1] = eel AChE activity, at 20 μM, read-out: Percentage inhibition

eel acetylcholinesterase (AChE), sequence (O42275 24-633): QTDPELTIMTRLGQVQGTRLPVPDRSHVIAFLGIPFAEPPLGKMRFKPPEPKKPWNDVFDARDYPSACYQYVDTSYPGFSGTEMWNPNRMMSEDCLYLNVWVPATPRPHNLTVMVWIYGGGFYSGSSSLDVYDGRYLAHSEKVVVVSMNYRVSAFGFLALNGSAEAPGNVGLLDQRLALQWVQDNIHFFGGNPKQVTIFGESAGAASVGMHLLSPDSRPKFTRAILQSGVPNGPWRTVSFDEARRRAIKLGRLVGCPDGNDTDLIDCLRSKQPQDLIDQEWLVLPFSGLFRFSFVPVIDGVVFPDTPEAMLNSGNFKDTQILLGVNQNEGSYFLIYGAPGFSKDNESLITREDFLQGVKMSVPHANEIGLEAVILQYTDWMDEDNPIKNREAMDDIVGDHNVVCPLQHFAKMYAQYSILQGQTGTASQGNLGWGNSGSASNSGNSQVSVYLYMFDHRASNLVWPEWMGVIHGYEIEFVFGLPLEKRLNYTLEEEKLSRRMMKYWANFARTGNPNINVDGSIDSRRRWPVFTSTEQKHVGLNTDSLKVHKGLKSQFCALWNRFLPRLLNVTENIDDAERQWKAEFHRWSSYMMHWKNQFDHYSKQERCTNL

SMILES | inhibition at 20 µM [1] | inhibition of AChE activity (in words) | assay interference test versus enzyme-free H2O2 reaction (parallel dose-response with 5 μM H2O2) | inhibition at 20 µM (read-out: inhibition of enzyme activity compared to DMSO control (screen)) | Hill slope, eel AChE dose-response (sixteen-point serial dilution, four-parameter fit)
O=C1c2cc(O)ccc2-c2ccc(O)cc21 [2,7-dihydroxy-9H-fluoren-9-one] | 30% | neither fluorenone, nor the close derivative 2,7-dihydroxy-9H-fluoren-9-one inhibit AChE activity | – | – | –
Nc1c2ccccc2nc2ccccc12 [aminacrine] | 99.2% | – | – | – | –
Cc1cc(N)c2ccccc2[n+]1CCCCCCCCCC[n+]1c(C)cc(N)c2ccccc21 [dequalinium chloride] | – | – | likely represent true inhibition of the enzyme | ≥ 50% | 0.87
O=C1c2ccccc2-c2ccccc21 [fluorenone] | 3% | – | – | – | –
CCN(CC)CCNc1ccc(C)c2sc3ccccc3c(=O)c12 [lucanthone] | 11% | did not show appreciable activity | – | – | –
